Data on 26 molecules can be found in PubChem BioAssay AID624407 (The Scripps Research Institute Molecular Screening Center, 2012).

Activity calls are given as the source filed them. The rule behind the calls is not given here.

This assay concerns parental CHO-K1 cells, HTRF counterscreen. Briefly: nonspecific inhibition in untransfected CHO-K1 – cell-based, HTRF, dose response, counter-screen for OX1R antagonist project, late-stage follow-up (AID 624407). Background: TR-FRET usually uses a lanthanide donor and a delayed reading to cut background.

Usually IC50 stands for the concentration at which inhibition is half-maximal. Regarding `CCc1cc(C(=O)OCC(=O)N2CCC(c3ccccc3)=N2)sc1C`, the IC50 was > 59.6 µM (inactive). The result for `O=C(CSc1ccc(-c2ccccc2)nn1)c1cccs1` reads > 59.6 µM (inactive); that for `COc1cc(OC)c(-c2nc3ccccc3s2)cc1OC`, > 59.6 µM (inactive); that for `CCn1c(SCC(=O)Nc2ccc3c(c2)c2ccccc2n3CC)nnc1-c1cnccn1`, > 59.6 µM (inactive). Take `CCOc1ccccc1C(=O)Nc1ccc2nc3n(c(=O)c2c1)CCCCC3`: the IC50 is > 59.6 µM (inactive).

On to `Cc1ccc(-c2csc3nnc(SCC(=O)Nc4nsc(-c5ccccc5)n4)n23)cc1`, for which the IC50 is > 59.6 µM (inactive).

For the molecule `CN(N=Cc1cc([N+](=O)[O-])ccc1O)c1ccccc1`, the IC50 is > 59.6 µM (inactive). Consider `CCc1cc2c(SCC(=O)N(CC)c3c(N)n(Cc4ccccc4)c(=O)[nH]c3=O)ncnc2s1`, for which the IC50 is > 59.6 µM (inactive). As for `Cc1c(NS(=O)(=O)c2cccc(C(=O)OCC(=O)N(C)C3CCCCC3)c2)c(=O)n(-c2ccccc2)n1C`, the IC50 was > 59.6 µM (inactive). In the case of `Cc1cc(Cl)ccc1OCCCC(=O)NCCN1C(=O)S/C(=C\c2cccnc2)C1=O`, the IC50 was 8.79 µM. In the case of `Cc1cccc(NC(=O)[C@@H]2CCCN2S(=O)(=O)c2ccc(Cl)cc2)c1`, the IC50 was > 59.6 µM (inactive). With `Cc1noc(C)c1COc1ccc(C(=O)OCC(=O)N2CC(=O)Nc3ccccc32)cc1`, the IC50 was > 59.6 µM (inactive). With `CSc1cccc(NC(=O)C2CCCN2S(=O)(=O)c2ccc(Br)s2)c1` (stereo unspecified), the IC50 was > 59.6 µM (inactive).

As to `Fc1cccc(Nc2nc3ccccc3n3cnnc23)c1`, the IC50 was > 59.6 µM (inactive).

In the case of `Cc1ccccc1NC(=O)C1CCCN1S(=O)(=O)c1ccccc1C(F)(F)F` (stereo unspecified), the IC50 was > 59.6 µM (inactive). The result for `CC(=C/c1ccccc1)/C=C1/SC(N2CCOCC2)=NC1=O` reads 12.4 µM (inactive); that for `Cc1cccc(C=NNC(=O)c2cc3c(s2)-c2ccccc2CC3)c1`, > 59.6 µM (inactive); that for `CCN(CC)c1ccc(NC(=O)Cn2c(C(C)NC(=O)c3ccccc3)nc3ccccc32)cc1` (stereo unspecified), > 59.6 µM (inactive). `COc1cccc(/C=C2/Oc3ccccc3N(CC(=O)NCC3CCCO3)C2=O)c1` (stereo unspecified): the IC50 is > 59.6 µM (inactive).

Take `COCCCNC(=O)CCC(=O)NNc1nc2ccccc2c2nc(-c3ccccc3)nn12`: the IC50 is > 59.6 µM (inactive). Regarding `O=C(CN1C(=O)/C(=C\c2cccc(Br)c2)Oc2ccccc21)NCC1CCCO1` (stereo unspecified), the IC50 is > 59.6 µM (inactive). To `CCOC(=O)N1CCN(C(=O)CSc2ccc(-c3ccccc3)nn2)CC1` belongs > 59.6 µM (inactive); to `CCSC1=C(C#N)C(c2ccccc2Cl)C(C(=O)c2cccs2)C(O)(C(F)(F)F)N1` (stereo unspecified), > 59.6 µM (inactive).

As to `CSc1cccc(N2CC(C(=O)NCCN3C(=O)S/C(=C\c4cccnc4)C3=O)CC2=O)c1` (stereo unspecified), the IC50 was 3.37 µM. For the molecule `COc1ccc(OC)c(S(=O)(=O)NCC(c2ccco2)N2CCc3ccccc32)c1` (stereo unspecified), the IC50 is > 59.6 µM (inactive). The result for `O=c1cc(CN2CC(O)Cc3ccc4ccccc4c32)nc2sccn12` (stereo unspecified) reads > 59.6 µM (inactive).
